Measured values as given in US11807644B2 (PMV Pharmaceuticals, Inc., priority 2020, dated 2023).

target: T1, recombinant His-tag Y220C p53 DBD protein (Homo sapiens, UniProt P04637, Y220C); experiment: In vitro DNA binding activity assay (TR-FRET): binding of His-tag Y220C p53 DBD to biotin-labeled consensus DNA; type: biochemical; details: SC150 = concentration to increase DNA binding by […], His-tag Y220C p53 DBD, biotin-labeled consensus DNA
T1 construct: recombinant His-tag Y220C p53 DBD protein (amino acids #˜94-312)

Structure (SMILES)	Y220C SC150 (μM)
COC(=O)[C@@H]1C[C@H]1C(=O)NCc1nnc(-c2cc3c(NC4CCN(C)CC4)cccc3n2CC(F)(F)F)s1 (racemic) [Compound 75B, (+/−)-methyl (1R,2R)-2-{[(5-{4-[(1-methylpiperidin-4-yl)amino]-1-(2,2,2-trifluoroethyl)-1H-indol-2-yl}-1,3,4-thiadiazol-2-yl)methyl]carbamoyl}cyclopropane-1-carboxylate]	* (* = 0 μM ≤ SC150 < 0.1 μM)
CN1CC[C@H](Nc2cccc3c2cc(-c2nnc(CNC(=O)c4cccs4)o2)n3CC(F)(F)F)[C@H](F)C1 (racemic) [Compound 120B, (+/−)-N-{[5-(4-{[(3R, 4S)-3-fluoro-1-methylpiperidin-4-yl]amino}-1-(2,2,2-trifluoroethyl)-1H-indol-2-yl)-1,3,4-oxadiazol-2-yl]methyl}thiophene-2-carboxamide]	** (** = 0.1 μM ≤ SC150 < 0.5 μM)
CN1CCC(Nc2cccc3c2cc(-c2noc(CNC(=O)Nc4ccccc4)n2)n3CC(F)(F)F)CC1 [Compound 153B, 3-[(3-{4-[(1-methylpiperidin-4-yl)amino]-1-(2,2,2-trifluoroethyl)-1H-indol-2-yl}-1,2,4-oxadiazol-5-yl)methyl]-1-phenylurea]	* (* = 0 μM ≤ SC150 < 0.1 μM)
CN1CC[C@@H](Nc2cccc3c2cc(-c2noc(CNC(=O)c4cccc(N(C)C)c4)n2)n3CC(F)(F)F)[C@@H](F)C1 [Compound 242B, 3-(dimethylamino)-N-{[3-(4-{[(3S,4R)-3-fluoro-1-methylpiperidin-4-yl]amino}-1-(2,2,2-trifluoroethyl)-1H-indol-2-yl)-1,2,4-oxadiazol-5-yl]methyl}benzamide]	* (* = 0 μM ≤ SC150 < 0.1 μM)
CN1CC[C@@H](Nc2cccc3c2cc(-c2noc(CNc4cn[nH]c4)n2)n3CC(F)(F)F)[C@@H](F)C1 [Compound 227B, N-[(3S,4R)-3-fluoro-1-methylpiperidin-4-yl]-2-(5-{[(1H-pyrazol-4-yl)amino]methyl}-1,2,4-oxadiazol-3-yl)-1-(2,2,2-trifluoroethyl)-1H-indol-4-amine]	* (* = 0 μM ≤ SC150 < 0.1 μM)
CN1CC[C@@H](Nc2cccc3c2cc(-c2noc(CNC(=O)c4ccc(N5CCOCC5)cc4)n2)n3CC(F)(F)F)[C@@H](F)C1 [Compound 260B, N-{[3-(4-{[(3S,4R)-3-fluoro-1-methylpiperidin-4-yl]amino}-1-(2,2,2-trifluoroethyl)-1H-indol-2-yl)-1,2,4-oxadiazol-5-yl]methyl}-4-(morpholin-4-yl)benzamide]	* (* = 0 μM ≤ SC150 < 0.1 μM)
CC(C)c1nc(C(=O)NCc2nc(-c3cc4c(N[C@@H]5CCN(C)C[C@@H]5F)cccc4n3CC(F)(F)F)no2)co1 [Compound 430B, N-{[3-(4-{[(3S,4R)-3-fluoro-1-methylpiperidin-4-yl]amino}-1-(2,2,2-trifluoroethyl)-1H-indol-2-yl)-1,2,4-oxadiazol-5-yl]methyl}-2-(propan-2-yl)-1,3-oxazole-4-carboxamide]	* (* = 0 μM ≤ SC150 < 0.1 μM)
CN1CCC(Nc2cccc3c2cc(-c2nnc(CNC(=O)c4ccncc4)s2)n3CC(F)(F)F)CC1 [Compound 49B, N-[(5-{4-[(1-methylpiperidin-4-yl)amino]-1-(2,2,2-trifluoroethyl)-1H-indol-2-yl}-1,3,4-thiadiazol-2-yl)methyl]pyridine-4-carboxamide]	** (** = 0.1 μM ≤ SC150 < 0.5 μM)
COCC1(n2ccc(C(=O)NCc3nc(-c4cc5c(N[C@@H]6CCN(C)C[C@@H]6F)cccc5n4CC(F)(F)F)no3)c2)CCC1 [Compound 471B]	* (* = 0 μM ≤ SC150 < 0.1 μM)
CN1CC[C@@H](Nc2cccc3c2cc(-c2noc(CNc4nccc5c4cnn5C)n2)n3CC(F)(F)F)[C@@H](F)C1 [Compound 452B, N-[(3S,4R)-3-fluoro-1-methylpiperidin-4-yl]-2-{5-[({1-methyl-1H-pyrazolo[^4,3-c]pyridin-4-yl}amino)methyl]-1,2,4-oxadiazol-3-yl}-1-(2,2,2-trifluoroethyl)-1H-indol-4-amine]	* (* = 0 μM ≤ SC150 < 0.1 μM)
CC(C)(C)N1CC[C@@H](Nc2cccc3c2cc(-c2noc(CNC(=O)c4cnn(C(C)(C)C)c4)n2)n3CC(F)(F)F)[C@H](F)C1 [Compound 402B, 1-tert-butyl-N-{[3-(4-{[(3R,4R)-1-tert-butyl-3-fluoropiperidin-4-yl]amino}-1-(2,2,2-trifluoroethyl)-1H-indol-2-yl)-1,2,4-oxadiazol-5-yl]methyl}-1H-pyrazole-4-carboxamide]	* (* = 0 μM ≤ SC150 < 0.1 μM)
CC(C)n1ccc(C(=O)NCc2nc(-c3cc4c(N[C@@H]5CCN(C)C[C@@H]5F)cccc4n3CC(F)(F)F)no2)c1 [Compound 199B, N-{[3-(4-{[(3S,4R)-3-fluoro-1-methylpiperidin-4-yl]amino}-1-(2,2,2-trifluoroethyl)-1H-indol-2-yl)-1,2,4-oxadiazol-5-yl]methyl}-1-(propan-2-yl)-1H-pyrrole-3-carboxamide]	* (* = 0 μM ≤ SC150 < 0.1 μM)
CN1CCC(Nc2cccc3c2cc(-c2ncc(CNC(=O)C4CC4)s2)n3CC(F)(F)F)CC1 [Compound 94B, N-[(2-{4-[(1-methylpiperidin-4-yl)amino]-1-(2,2,2-trifluoroethyl)-1H-indol-2-yl}-1,3-thiazol-5-yl)methyl]cyclopropanecarboxamide]	* (* = 0 μM ≤ SC150 < 0.1 μM)
CN1CCC(Nc2cccc3c2cc(-c2nnc(CNC(=O)c4ccc(C(=O)O)cc4)s2)n3CC(F)(F)F)CC1 [Compound 54B, 4-{[(5-{4-[(1-methylpiperidin-4-yl)amino]-1-(2,2,2-trifluoroethyl)-1H-indol-2-yl}-1,3,4-thiadiazol-2-yl)methyl]carbamoyl}benzoic acid]	** (** = 0.1 μM ≤ SC150 < 0.5 μM)
CN1CCC(Nc2cccc3c2cc(-c2noc(CNC(=O)c4ccc(F)cc4)n2)n3CC(F)(F)F)CC1 [Compound 150B, 4-fluoro-N-[(3-{4-[(1-methylpiperidin-4-yl)amino]-1-(2,2,2-trifluoroethyl)-1H-indol-2-yl}-1,2,4-oxadiazol-5-yl)methyl]benzamide]	* (* = 0 μM ≤ SC150 < 0.1 μM)
CN1CCC(Nc2cccc3c2cc(-c2noc(CNC(=O)c4nccs4)n2)n3CC(F)(F)F)CC1 [Compound 149B, N-[(3-{4-[(1-methylpiperidin-4-yl)amino]-1-(2,2,2-trifluoroethyl)-1H-indol-2-yl}-1,2,4-oxadiazol-5-yl)methyl]-1,3-thiazole-2-carboxamide]	* (* = 0 μM ≤ SC150 < 0.1 μM)
CN1CC[C@@H](Nc2cccc3c2cc(-c2noc(CNC(=O)c4ccn(CCF)c4)n2)n3CC(F)(F)F)[C@@H](F)C1 [Compound 205B, N-{[3-(4-{[(3S,4R)-3-fluoro-1-methylpiperidin-4-yl]amino}-1-(2,2,2-trifluoroethyl)-1H-indol-2-yl)-1,2,4-oxadiazol-5-yl]methyl}-1-(2-fluoroethyl)-1H-pyrrole-3-carboxamide]	* (* = 0 μM ≤ SC150 < 0.1 μM)
COCCn1ccc(C(=O)NCc2nc(-c3cc4c(N[C@@H]5CCN(C)C[C@@H]5F)cccc4n3CC(F)(F)F)no2)c1 [Compound 198B, N-{[3-(4-{[(3S,4R)-3-fluoro-1-methylpiperidin-4-yl]amino}-1-(2,2,2-trifluoroethyl)-1H-indol-2-yl)-1,2,4-oxadiazol-5-yl]methyl}-1-(2-methoxyethyl)-1H-pyrrole-3-carboxamide]	* (* = 0 μM ≤ SC150 < 0.1 μM)
CN1CC[C@@H](Nc2cccc3c2cc(-c2noc(CNC(=O)[C@H]4C[C@H]4c4ccccc4)n2)n3CC(F)(F)F)[C@@H](F)C1 [Compound 206B, (1S,2R)-N-{[3-(4-{[(3S,4R)-3-fluoro-1-methylpiperidin-4-yl]amino}-1-(2,2,2-trifluoroethyl)-1H-indol-2-yl)-1,2,4-oxadiazol-5-yl]methyl}-2-phenylcyclopropane-1-carboxamide]	* (* = 0 μM ≤ SC150 < 0.1 μM)
CN1CC[C@@H](Nc2cccc3c2cc(-c2noc(CNC(=O)c4cn(C5(C)CCOCC5)cn4)n2)n3CC(F)(F)F)[C@@H](F)C1 [Compound 433B, N-{[3-(4-{[(3S,4R)-3-fluoro-1-methylpiperidin-4-yl]amino}-1-(2,2,2-trifluoroethyl)-1H-indol-2-yl)-1,2,4-oxadiazol-5-yl]methyl}-1-(4-methyloxan-4-yl)-1H-imidazole-4-carboxamide]	* (* = 0 μM ≤ SC150 < 0.1 μM)

same assay, conditions: concentration to increase DNA binding by […], incubated at either 27° C. or 29° C. for 60 min

Structure (SMILES)	SC150 (μM)
COc1ccc(NCc2ccc(-c3cc4c(NC5CCN(C6CCOCC6)CC5)cccc4n3CC(F)(F)F)cc2)cc1 [Compound 33A, 2-(4-{[(4-methoxyphenyl)amino]methyl}phenyl)-N-[1-(oxan-4-yl)piperidin-4-yl]-1-(2,2,2-trifluoroethyl)-1H-indol-4-amine]	++ (++ = 2 μM ≤ SC150 < 5 μM)
CN1CC[C@H](Nc2cccc3c2cc(-c2ccc(CNC(=O)c4ccccc4)cc2)n3CC(F)(F)F)[C@H](F)C1 (racemic) [Compound 45A, (+/−)-N-{[4-(4-{[(3R,4S)-3-fluoro-1-methylpiperidin-4-yl]amino}-1-(2,2,2-trifluoroethyl)-1H-indol-2-yl)phenyl]methyl}benzamide]	+ (+ = 0 μM ≤ SC150 < 2 μM)
CC(C)(C#N)c1ccc(NC(=O)NCc2ccc(-c3cc4c(NC5CCS(=O)(=O)CC5)cccc4n3CC(F)(F)F)cc2)cn1 [Compound 18A, 3-[6-(1-cyano-1-methylethyl)pyridin-3-yl]-1-[(4-{4-[(1,1-dioxo-1λ^6-thian-4-yl)amino]-1-(2,2,2-trifluoroethyl)-1H-indol-2-yl}phenyl)methyl]urea]	+ (+ = 0 μM ≤ SC150 < 2 μM)
